According to patent US11492618B2, “Expression control using a regulatable intron” (ASKLEPIOS BIOPHARMACEUTICAL, INC., priority 2017, dated 2022):

Experiments:
[1] = tested on: HEK293F cells; assay: EGFP expression from 6xATF6 promoter constructs with and without XBP1 intron after 2 mM DTT; assay type: cell-based, human
Method: For this study two constructs were prepared: • 1) 6×ATF6 elements (having the sequence TGACGTGCT) upstream of the CMV-minimal promoter (CMV-MP) and EGFP; this construct was named SYNP-ATF6-01 (see below, SEQ ID NO: 30). • 2) 6×ATF6 elements upstream of the CMV-MP and EGFP with XBP1 intron insertion; this construct was named SYNP-ATF6-02 (see below, SEQ ID NO: 31).
HEK293F cells were used in this study. All growth conditions, transfections and analyses were carried out as described in Example 1.
24 well transfections were set-up as described above. Each condition was performed in duplicate/triplicate. 24 hrs after transfection the cells were treated with either 2 mM DTT, to induce the UPR, or by mock treatment with an equivalent volume of water. 1, 3, 5 and 24 hrs after treatment of the cells GFP fluorescence was measured as previously described.
The ratio of GFP fluorescence to the control plasmid was calculated before and after induction.

[2] = tested on: HEK293F cells; assay: EGFP expression from ATF6 constructs induced by wtAAV production; assay type: cell-based, human
Method: In this experiment transfections were carried out in 24-well plates as previously described. The ATF6 plasmids (SYNP-ATF6-01 and SYNP-ATF6-02 constructs in the pMA-RQ vector) were transfected into HEK293F cells (using MAX reagent, as above) and after 24 hrs GFP was measured. After GFP measurement the same cells were transfected with the plasmids for wtAAV production pGRG25AAV2 (provided by Adrien Savvy) and pHelper plasmid from Takara/Clonetech in a 1:1 ratio. EGFP fluorescence was then measured after 1, 3, 5 and 24 hrs (FIGS. 7 and 8—not all data is shown). Both plasmids are required for wtAAV production, with the pGRG25AAV2 providing the wtAAV2 genome and the pHelper plasmid providing the E2, VA and E4 helper functions required for virus replication.
This confirmed successful AAV expression. Zs green is a variant of eGFP and as such GFP measurement was carried out on these cells as previously described.

SYNP-ATF6-02: 6×ATF6 elements upstream of the CMV-MP and EGFP with XBP1 intron insertion (SEQ ID NO: 31)
GFP expression after induction, ratio to CMV-IE ([1]; 2 mM DTT, 3 independent experiments): 4 times the level of CMV-IE
background level of GFP fluorescence ([1]; before DTT, raw data): practically zero
background level of EGFP before wtAAV production [2]: zero
